# Test results taken from article doi:10.1101/2024.09.05.611349v1 (biorxiv, 2024).
# Like-named read-outs stand apart in the source and are kept apart here.
# Tests used:
# [1] = tested on: Staphylococcus epidermidis MRSE 15-3; test: microbe, parasite or virus in culture; set-up: species or system gram-positive clinical isolates; details: Staphylococcus epidermidis, MRSE
# [2] = tested on: Staphylococcus aureus MRSA 17-2; test: microbe, parasite or virus in culture; set-up: species or system gram-positive clinical isolates; details: Staphylococcus aureus, MRSA
# [3] = tested on: Staphylococcus aureus MSSA 15-8; test: microbe, parasite or virus in culture; set-up: species or system gram-positive clinical isolates; details: Staphylococcus aureus, MSSA
# [4] = tested on: Staphylococcus aureus MRSA 17-9; test: microbe, parasite or virus in culture; set-up: species or system gram-positive clinical isolates; details: Staphylococcus aureus, MRSA
# [5] = tested on: Staphylococcus aureus MRSA 17-3; test: microbe, parasite or virus in culture; set-up: species or system gram-positive clinical isolates; details: Staphylococcus aureus, MRSA
# [6] = tested on: Staphylococcus aureus MRSA 17-10; test: microbe, parasite or virus in culture; set-up: species or system gram-positive clinical isolates; details: Staphylococcus aureus, MRSA
# [7] = tested on: Enterococcus faecium EFM 15-8; test: microbe, parasite or virus in culture; set-up: species or system gram-positive clinical isolates; details: Enterococcus faecium
# [8] = tested on: Enterococcus faecalis EFA 15-66; test: microbe, parasite or virus in culture; set-up: species or system gram-positive clinical isolates; details: Enterococcus faecalis
# [9] = tested on: Staphylococcus epidermidis MRSE 15-1; test: microbe, parasite or virus in culture; set-up: species or system gram-positive clinical isolates; details: Staphylococcus epidermidis, MRSE
# [10] = tested on: Staphylococcus aureus MRSA 17-1; test: microbe, parasite or virus in culture; set-up: species or system gram-positive clinical isolates; details: Staphylococcus aureus, MRSA
# [11] = tested on: Staphylococcus aureus MSSA 15-2; test: microbe, parasite or virus in culture; set-up: species or system gram-positive clinical isolates; details: Staphylococcus aureus, MSSA
# [12] = tested on: Staphylococcus aureus MRSA 17-6; test: microbe, parasite or virus in culture; set-up: species or system gram-positive clinical isolates; details: Staphylococcus aureus, MRSA
# [13] = tested on: Staphylococcus aureus MRSA 15-3; test: microbe, parasite or virus in culture; set-up: species or system gram-positive clinical isolates; details: Staphylococcus aureus, MRSA
# [14] = tested on: Enterococcus faecium EFM 15-11; test: microbe, parasite or virus in culture; set-up: species or system gram-positive clinical isolates; details: Enterococcus faecium
# [15] = tested on: Staphylococcus aureus MRSA 15-1; test: microbe, parasite or virus in culture; set-up: species or system gram-positive clinical isolates; details: Staphylococcus aureus, MRSA
# [16] = tested on: Enterococcus faecalis EFA 15-68; test: microbe, parasite or virus in culture; set-up: species or system gram-positive clinical isolates; details: Enterococcus faecalis
# [17] = tested on: Staphylococcus aureus MRSA 17-8; test: microbe, parasite or virus in culture; set-up: species or system gram-positive clinical isolates; details: Staphylococcus aureus, MRSA
# [18] = tested on: Enterococcus faecalis EFA 15-55; test: microbe, parasite or virus in culture; set-up: species or system gram-positive clinical isolates; details: Enterococcus faecalis
# [19] = tested on: Staphylococcus aureus MSSA 15-6; test: microbe, parasite or virus in culture; set-up: species or system gram-positive clinical isolates; details: Staphylococcus aureus, MSSA
# [20] = tested on: Staphylococcus epidermidis MRSE 15-76; test: microbe, parasite or virus in culture; set-up: species or system gram-positive clinical isolates; details: Staphylococcus epidermidis, MRSE
# [21] = tested on: Staphylococcus epidermidis MRSE 15-78; test: microbe, parasite or virus in culture; set-up: species or system gram-positive clinical isolates; details: Staphylococcus epidermidis, MRSE
# [22] = tested on: Enterococcus faecium EFM 15-6; test: microbe, parasite or virus in culture; set-up: species or system gram-positive clinical isolates; details: Enterococcus faecium
# [23] = tested on: Staphylococcus aureus MSSA 15-7; test: microbe, parasite or virus in culture; set-up: species or system gram-positive clinical isolates; details: Staphylococcus aureus, MSSA
# [24] = tested on: Staphylococcus aureus MRSA 17-5; test: microbe, parasite or virus in culture; set-up: species or system gram-positive clinical isolates; details: Staphylococcus aureus, MRSA
# [25] = tested on: Staphylococcus epidermidis MSSE 15-2; test: microbe, parasite or virus in culture; set-up: species or system gram-positive clinical isolates; details: Staphylococcus epidermidis, MSSE152, read-out: MIC(μg/ml) / 1b
# [26] = tested on: Staphylococcus epidermidis MSSE 15-1; test: microbe, parasite or virus in culture; set-up: species or system gram-positive clinical isolates; details: Staphylococcus epidermidis, MSSE151, read-out: MIC(μg/ml) / 1b
# [27] = in vitro; details: Mouse liver microsomes
# [28] = read-out: MIC(μg/ml) / vancomycin
smiles,measurement,setting,value
CN[C@H](CC(C)C)C(=O)N[C@H]1C(=O)N[C@@H](CC(N)=O)C(=O)N[C@H]2C(=O)N[C@H]3C(=O)N[C@H](C(=O)N[C@H](C(=O)O)c4cc(O)cc(O)c4-c4cc3ccc4O)[C@H](O)c3ccc(c(Cl)c3)Oc3cc2cc(c3O[C@@H]2O[C@H](CO)[C@@H](O)[C@H](O)[C@H]2O[C@H]2C[C@](C)(N)[C@H](O)[C@H](C)O2)Oc2ccc(cc2Cl)[C@H]1O [vancomycin],MIC,[1]; [28],2 µg/mL
same,MIC,[2]; [28],0.5 µg/mL
same,MIC,[3]; [28],0.5 µg/mL
same,MIC,[4]; [28],0.5 µg/mL
same,MIC,[5]; [28],1 µg/mL
same,MIC,[6]; [28],1 µg/mL
same,MIC,"[7]; EFM158, read-out: MIC(μg/ml) / vancomycin",0.5 µg/mL
same,MIC,"[8]; EFA1566, read-out: MIC(μg/ml) / vancomycin",2 µg/mL
same,MIC,[9]; [28],2 µg/mL
same,MIC,[10]; [28],0.5 µg/mL
same,MIC,[11]; [28],1 µg/mL
same,MIC,[12]; [28],0.5 µg/mL
same,MIC,[13]; [28],1 µg/mL
same,MIC,"[14]; EFM1511, read-out: MIC(μg/ml) / vancomycin",0.5 µg/mL
same,MIC,[15]; [28],2 µg/mL
same,MIC,"[16]; EFA1568, read-out: MIC(μg/ml) / vancomycin",0.5 µg/mL
same,MIC,[17]; [28],0.5 µg/mL
same,MIC,"[18]; EFA1555, read-out: MIC(μg/ml) / vancomycin",0.5 µg/mL
same,MIC,[19]; [28],0.5 µg/mL
same,MIC,[20]; [28],2 µg/mL
same,MIC,[21]; [28],1 µg/mL
same,MIC,"[22]; EFM156, read-out: MIC(μg/ml) / vancomycin",1 µg/mL
same,MIC,[23]; [28],1 µg/mL
same,MIC,[24]; [28],0.5 µg/mL
"CCCCCOc1ccc(C(=O)NNC(=S)NC(C)=O)cc1 [1b, N-(2-(4-(n-pentoxy)benzoyl)hydrazine-1-carbonothioyl)acetamide]",MIC,[25],1 µg/mL
same,MIC,[1]; read-out: MIC(μg/ml) / 1b,2 µg/mL
same,MIC,[2]; read-out: MIC(μg/ml) / 1b,4 µg/mL
same,MIC,[3]; read-out: MIC(μg/ml) / 1b,2 µg/mL
same,MIC,[4]; read-out: MIC(μg/ml) / 1b,2 µg/mL
same,MIC,[5]; read-out: MIC(μg/ml) / 1b,2 µg/mL
same,MIC,[6]; read-out: MIC(μg/ml) / 1b,2 µg/mL
same,MIC,"[7]; EFM158, read-out: MIC(μg/ml) / 1b",2 µg/mL
same,MIC,"[8]; EFA1566, read-out: MIC(μg/ml) / 1b",4 µg/mL
same,MIC,[9]; read-out: MIC(μg/ml) / 1b,4 µg/mL
same,MIC,[10]; read-out: MIC(μg/ml) / 1b,2 µg/mL
same,MIC,[11]; read-out: MIC(μg/ml) / 1b,2 µg/mL
same,MIC,[12]; read-out: MIC(μg/ml) / 1b,2 µg/mL
same,MIC,[13]; read-out: MIC(μg/ml) / 1b,4 µg/mL
same,MIC,"[14]; EFM1511, read-out: MIC(μg/ml) / 1b",4 µg/mL
same,MIC,[26],1 µg/mL
same,MIC,[15]; read-out: MIC(μg/ml) / 1b,4 µg/mL
same,MIC,"[16]; EFA1568, read-out: MIC(μg/ml) / 1b",4 µg/mL
same,MIC,[17]; read-out: MIC(μg/ml) / 1b,2 µg/mL
same,MIC,"[18]; EFA1555, read-out: MIC(μg/ml) / 1b",8 µg/mL
same,MIC,[19]; read-out: MIC(μg/ml) / 1b,2 µg/mL
same,MIC,[20]; read-out: MIC(μg/ml) / 1b,2 µg/mL
same,MIC,[21]; read-out: MIC(μg/ml) / 1b,2 µg/mL
same,MIC,"[22]; EFM156, read-out: MIC(μg/ml) / 1b",2 µg/mL
same,MIC,[23]; read-out: MIC(μg/ml) / 1b,2 µg/mL
same,MIC,[24]; read-out: MIC(μg/ml) / 1b,2 µg/mL
same,Mouse liver microsomes T1/2,[27],28.3 min
